Data on 3 compounds can be found in ChEMBL document CHEMBL1201862, “PubChem BioAssay data set” (2004).

Some test systems named below: K562; TK-10; HOP-62; HOP-92; SNB-19; CCRF-CEM; A549; 786-0; PC-3; SNB-75; OVCAR-3; SW-620; COLO 205; NCI-H522; NCI-H23; NCI-H226; EKVX; IGROV-1; BT-549; RXF 393.
Holding throughout (assay): NCI tumour cell line growth inhibition, 48 h

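Each compound was tested at five concentrations against cells in 96-well plates for 48 hours. GI50 = concentration required for 50% inhibition of growth.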 Active and inactive are the calls of the source. Cut-off read from the data, not from the text of the source: active = GI50 up to about 1.1 µM and inactive = higher.

Turning to `Clc1ccc2c(NCCCCCCNc3ccnc4cc(Cl)ccc34)ccnc2c1`, the GI50 is 1.72 µM (inactive) with K562; 6.78 µM (inactive) with TK-10; 4.72 µM (inactive) in the experiment on HOP-62; 2 µM (inactive) in the experiment on HOP-92; 3.8 µM (inactive) in the experiment with SNB-19; 2.34 µM (inactive) in the experiment on CCRF-CEM. For the same compound, the GI50 in the experiment with A549 was 4.69 µM (inactive); with 786-0, 1.97 µM (inactive); with PC-3, 3.65 µM (inactive); in the experiment with SNB-75 it was 2.73 µM (inactive); in the experiment with OVCAR-3 it was 1.84 µM (inactive); in the experiment with SW-620, 1.63 µM (inactive). The GI50 in the experiment on COLO 205 was 1.82 µM (inactive); in the experiment with NCI-H522, 1.69 µM (inactive); in the experiment on NCI-H23, 12.3 µM (inactive); in the experiment with NCI-H226, 10.4 µM (inactive); in the experiment on EKVX, 6.97 µM (inactive); with IGROV-1, 4.8 µM (inactive). Besides, the GI50 in the experiment on BT-549 was 11.6 µM (inactive); in the experiment with RXF 393, 3.01 µM (inactive).
Turning to `CC(C)(C)C(=O)OCOP(=O)(OCOC(=O)C(C)(C)C)OCC1OC(n2ccc(=O)[nH]c2=O)C(N=[N+]=[N-])C1O` (stereo not given), the GI50 is 19.1 µM (inactive) in the experiment with K562; 10.5 µM (inactive) with TK-10; 2.37 µM (inactive) in the experiment with HOP-62; 1.82 µM (inactive) in the experiment with HOP-92; 12.9 µM (inactive) in the experiment on SNB-19; 2.53 µM (inactive) in the experiment on CCRF-CEM. Also, the GI50 was 2.99 µM (inactive) in the experiment on A549; 2.46 µM (inactive) in the experiment on 786-0; 3.81 µM (inactive) with PC-3; 1.42 µM (inactive) in the experiment on SNB-75; 0.4 µM (active) with OVCAR-3; 5.79 µM (inactive) in the experiment on SW-620. Further, the GI50 was 3.14 µM (inactive) with COLO 205; 4.92 µM (inactive) with NCI-H522; 4.45 µM (inactive) with NCI-H23; 9.29 µM (inactive) with NCI-H226; 7.59 µM (inactive) in the experiment with EKVX; 4.23 µM (inactive) in the experiment with IGROV-1. Besides, the GI50 in the experiment on BT-549 is 3.91 µM (inactive); in the experiment with RXF 393, 2.3 µM (inactive).
In the case of `NC1CCN(c2nc3ccccc3c3c2CCCC3)CC1`, the GI50 in the experiment with K562 was 1.62 µM (inactive); with TK-10, 10.7 µM (inactive); in the experiment with HOP-62 it was 15.1 µM (inactive); with HOP-92, 4.99 µM (inactive); with SNB-19, 8.67 µM (inactive); in the experiment with CCRF-CEM, 4.28 µM (inactive). In addition, the GI50 with A549 was 9.44 µM (inactive); in the experiment on 786-0, 3.8 µM (inactive); in the experiment with PC-3, 7.89 µM (inactive); in the experiment on SNB-75 it was 9.93 µM (inactive); in the experiment with OVCAR-3 it was 11.9 µM (inactive); in the experiment on SW-620, 2.75 µM (inactive). The GI50 with COLO 205 is 1.67 µM (inactive); in the experiment on NCI-H522 it was 5.73 µM (inactive); in the experiment on NCI-H23, 14.1 µM (inactive); in the experiment with NCI-H226, 10.2 µM (inactive); in the experiment with EKVX, 5.9 µM (inactive); in the experiment with IGROV-1, 6.41 µM (inactive). Further, the GI50 in the experiment on BT-549 was 12.7 µM (inactive); in the experiment with RXF 393, 2.33 µM (inactive).
